Results as given in patent US8686044B2, “Amide derivative, pest control agent containing the amide derivative, and use of the amide derivative” (Mitsui Chemicals Agro, Inc., priority 2008, dated 2014).

Key:
Format in all cases: in vivo
[1] = tested on: Spodoptera litura; test: Pesticidal test against Spodoptera litura (cabbage leaf dip); details: foliar, 144 h, concentration 1 ppm, 2-stage larvae, examined after 6 days, 25° C., read-out: pesticidal rate
In short: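 Cabbage leaf pieces dipped 30 seconds in compound solution at a predetermined concentration and air-dried, then offered to second-stage larvae, five per group in two replicates. Held at 25° C. Living and dead larvae counted after 6 days.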

[2] = tested on: Plutella xylostella; test: Pesticidal test against Plutella xylostella (cabbage leaf dip); details: foliar, 144 h, concentration 1 ppm, 2-stage larvae, examined after 6 days, 25° C., read-out: pesticidal rate
In short: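 Cabbage leaf pieces dipped 30 s in test solution at a predetermined concentration, air-dried, then offered to 2nd-instar larvae, five per group in duplicate. Held at 25° C; living and dead larvae counted after 6 days.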

[3] = tested on: Laodelphax striatellus; test: Pesticidal test against Laodelphax striatellus (rice seedling spray); details: 144 h, concentration 100 ppm, 3-stage larvae, examined after 6 days, 25° C., read-out: pesticidal rate
In short: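 Rice seedlings sprayed with 2.5 ml acetone solution of compound at a predetermined concentration, air-dried, then infested with third-stage Laodelphax striatellus larvae in capped water-containing tubes at 25 °C. Living and dead insects counted after 6 days; ten larvae per group, two replicates.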

[4] = tested on: Musca domestica; test: Pesticidal test against Musca domestica (petri dish dry film); details: 24 h, concentration 100 ppm, female adults, examined after 1 day, 25° C., read-out: pesticidal rate
In short: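 Dry film from 1 ml acetone solution of compound at a predetermined concentration, air-dried in a 9 cm petri dish; female adult flies released and dish capped. Held at 25° C; living and dead counted after 1 day. Five insects per group, two replicates.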

[5] = tested on: Blattella germanica; test: Pesticidal test against Blattella germanica (petri dish dry film); details: 24 h, concentration 100 ppm, female adults, examined after 1 day, 25° C., read-out: pesticidal rate
Description: Pesticidal Test against Blattella germanica
1 ml of an acetone solution in which a test compound had been prepared at a predetermined concentration was added dropwise to a petri dish having a diameter of 9 cm, and air-dried, and then the female adults of Blattella germanica were released and the petri dish was capped. They were left to stand in a thermostatic chamber at 25° C., and the numbers of the living pests and the dead pests were examined after 1 day. The test was carried out with five larvae per group in two replicates.

[6] = tested on: Adoxophyes honmai; test: Pesticidal test against Adoxophyes honmai (artificial feed dip); details: 144 h, 2-stage larvae, examined after 6 days, 25° C., read-out: pesticidal rate; for pest or weed control at 10 ppm: concentration 10 ppm; for pest or weed control at 1 ppm: concentration 1 ppm
In short: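 Thin artificial feed slices dipped 30 s in test solution at a predetermined concentration, air-dried, then offered to 2nd-stage larvae. Kept at 25° C; live and dead larvae counted after 6 days. Five larvae per group, two replicates.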

[7] = tested on: Choristoneura magnanima; test: Pesticidal test against Choristoneura magnanima (artificial feed dip); details: 144 h, 2-stage larvae, examined after 6 days, 25° C., read-out: pesticidal rate; for pest or weed control at 1 ppm: concentration 1 ppm
Description: Pesticidal Test against Choristoneura magnanima A thinly sliced artificial feed was immersed for 30 seconds in a chemical solution in which a test compound had been prepared at a predetermined concentration, and air-dried, and then put into a 7 cm polyethylene cup having a filter paper laid on the bottom thereof, and 2-stage larvae of Choristoneura magnanima were released. They were left to stand in a thermostatic chamber at 25° C., and the numbers of the living pests and the dead pests were examined after 6 days. The test was carried out with five larvae per group in two replicates. Further, the above compound (A) was used as a comparative compound.

[8] = tested on: Helicoverpa armigera; test: Pesticidal test against Helicoverpa armigera (cabbage leaf disk dip); details: foliar, 72 h, concentration 1 ppm, 2-stage larvae, examined after 3 days, 25° C., read-out: pesticidal rate
In short: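 Cabbage leaf disks were dipped for 30 s in test solution at a set concentration and air-dried. Second-instar larvae were placed one per hole and held at 25 °C, with live and dead counts taken after 3 days. Five larvae per group were tested in two replicates.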

O=C(Nc1cccc(C(=O)Nc2c(Br)cc(C(F)(C(F)(F)F)C(F)(F)C(F)(F)F)cc2C(F)(F)F)c1)c1ccccc1 (stereo not shown) [6-346]
≥ 70%: pest or weed control at 1 ppm [1] | pest or weed control at 1 ppm [2] | pest or weed control at 100 ppm [3] | pest or weed control at 100 ppm [4] | pest or weed control at 100 ppm [5]

O=C(Nc1cccc(C(=O)Nc2c(Br)cc(C(F)(C(F)(F)F)C(F)(F)F)cc2C(F)(F)F)c1F)c1cccnc1Cl [6-1610]
≥ 70%: pest or weed control at 1 ppm [1] | pest or weed control at 1 ppm [2] | pest or weed control at 100 ppm [3] | pest or weed control at 100 ppm [5]

CN(C(=O)c1cccnc1Br)c1cccc(C(=O)Nc2c(Br)cc(C(F)(C(F)(F)F)C(F)(F)F)cc2C(F)(F)F)c1 [7-305]
≥ 70%: pest or weed control at 1 ppm [1] | pest or weed control at 1 ppm [2] | pest or weed control at 100 ppm [3] | pest or weed control at 100 ppm [5]

N#Cc1ccc(C(=O)Nc2c(Br)cc(C(F)(C(F)(F)F)C(F)(F)F)cc2C(F)(F)F)c(F)c1NC(=O)c1ccccc1 [1-1925]
≥ 70%: pest or weed control at 1 ppm [1] | pest or weed control at 1 ppm [2] | pest or weed control at 100 ppm [4] | pest or weed control at 100 ppm [5]

CN(C(=O)c1ccccc1F)c1cccc(C(=O)Nc2c(I)cc(C(F)(C(F)(F)F)C(F)(F)F)cc2I)c1F [7-1261]
≥ 70%: pest or weed control at 1 ppm [1] | pest or weed control at 1 ppm [2] | pest or weed control at 100 ppm [3] | pest or weed control at 100 ppm [5]

O=C(Nc1cccc(C(=O)Nc2c(C(F)(F)F)cc(C(F)(C(F)(F)F)C(F)(F)F)cc2C(F)(F)F)c1F)c1ccccc1 [6-2110, 3-benzamide-2-fluoro-N-(4-(perfluoropropan-2-yl)-2,6-bis(trifluoromethyl)phenyl)benzamide]
≥ 70%: pest or weed control at 1 ppm [1] | pest or weed control at 1 ppm [2] | pest or weed control at 10 ppm [6] | pest or weed control at 10 ppm ([7]; concentration 10 ppm) | pest or weed control at 1 ppm [8] | pest or weed control at 100 ppm [3] | pest or weed control at 100 ppm [4]

N#Cc1cccc(C(=O)Nc2cccc(C(=O)Nc3c(I)cc(C(F)(C(F)(F)F)C(F)(F)F)cc3I)c2F)c1 [6-1280]
≥ 70%: pest or weed control at 1 ppm [1] | pest or weed control at 1 ppm [2] | pest or weed control at 100 ppm [3] | pest or weed control at 100 ppm [5]

O=C(Nc1cccc(C(=O)Nc2c(Br)cc(C(F)(C(F)(F)F)C(F)(F)C(F)(F)F)cc2C(F)(F)F)c1F)c1ccc(Cl)nc1 (stereo not shown) [6-1695]
≥ 70%: pest or weed control at 1 ppm [1] | pest or weed control at 1 ppm [2] | pest or weed control at 10 ppm [6] | pest or weed control at 1 ppm [7] | pest or weed control at 1 ppm [8] | pest or weed control at 100 ppm [3] | pest or weed control at 100 ppm [4]

O=C(Nc1cccc(C(=O)Nc2c(I)cc(C(F)(C(F)(F)F)C(F)(F)F)cc2I)c1F)c1cccnc1Cl [6-1296]
≥ 70%: pest or weed control at 1 ppm [1] | pest or weed control at 1 ppm [2] | pest or weed control at 100 ppm [3] | pest or weed control at 100 ppm [5]

CN(C(=O)c1cccc(F)c1)c1cccc(C(=O)Nc2c(I)cc(C(F)(C(F)(F)F)C(F)(F)C(F)(F)F)cc2C(F)(F)F)c1F (stereo not shown) [7-1810]
≥ 70%: pest or weed control at 1 ppm [1] | pest or weed control at 1 ppm [2] | pest or weed control at 1 ppm [6] | pest or weed control at 1 ppm [7] | pest or weed control at 1 ppm [8] | pest or weed control at 100 ppm [3] | pest or weed control at 100 ppm [4]

CN(C(=O)c1ccc(F)cc1)c1cccc(C(=O)Nc2c(Br)cc(C(F)(C(F)(F)F)C(F)(F)C(F)(F)F)cc2C(F)(F)F)c1 (stereo not shown) [7-349]
≥ 70%: pest or weed control at 1 ppm [1] | pest or weed control at 1 ppm [2] | pest or weed control at 100 ppm [4] | pest or weed control at 100 ppm [5]

N#Cc1cccc(C(=O)Nc2cccc(C(=O)Nc3c(Br)cc(C(F)(C(F)(F)F)C(F)(F)C(F)(F)F)cc3C(F)(F)F)c2F)c1 (stereo not shown) [6-1672]
≥ 70%: pest or weed control at 1 ppm [1] | pest or weed control at 1 ppm [2] | pest or weed control at 1 ppm [6] | pest or weed control at 1 ppm [7] | pest or weed control at 1 ppm [8] | pest or weed control at 100 ppm [3] | pest or weed control at 100 ppm [4]

O=C(Nc1cccc(C(=O)Nc2c(I)cc(C(F)(C(F)(F)F)C(F)(F)C(F)(F)F)cc2C(F)(F)F)c1F)c1ccc(Cl)nc1 (stereo not shown) [6-1851]
≥ 70%: pest or weed control at 1 ppm [1] | pest or weed control at 1 ppm [2] | pest or weed control at 10 ppm [6] | pest or weed control at 1 ppm [7] | pest or weed control at 1 ppm [8] | pest or weed control at 100 ppm [3] | pest or weed control at 100 ppm [4]

CN(C(=O)c1ccccc1F)c1cccc(C(=O)Nc2c(Br)cc(C(F)(C(F)(F)F)C(F)(F)C(F)(F)F)cc2C(F)(F)F)c1 (stereo not shown) [7-347]
≥ 70%: pest or weed control at 1 ppm [1] | pest or weed control at 1 ppm [2] | pest or weed control at 100 ppm [5]

CN(C(=O)c1ccccc1)c1cccc(C(=O)Nc2c(I)cc(C(F)(C(F)(F)F)C(F)(F)C(F)(F)F)cc2C(F)(F)F)c1F (stereo not shown) [7-1808]
≥ 70%: pest or weed control at 1 ppm [1] | pest or weed control at 1 ppm [2] | pest or weed control at 1 ppm [6] | pest or weed control at 1 ppm [7] | pest or weed control at 1 ppm [8] | pest or weed control at 100 ppm [3] | pest or weed control at 100 ppm [4]

CN(C(=O)c1cccc(C#N)c1)c1cccc(C(=O)Nc2c(I)cc(C(F)(C(F)(F)F)C(F)(F)C(F)(F)F)cc2I)c1F (stereo not shown) [7-1358]
≥ 70%: pest or weed control at 1 ppm [1] | pest or weed control at 1 ppm [2] | pest or weed control at 1 ppm [6] | pest or weed control at 1 ppm [7] | pest or weed control at 1 ppm [8] | pest or weed control at 100 ppm [3] | pest or weed control at 100 ppm [4]

CN(C(=O)c1ccc(C#N)cc1)c1cccc(C(=O)Nc2c(Br)cc(C(F)(C(F)(F)F)C(F)(F)C(F)(F)F)cc2C(F)(F)F)c1 (stereo not shown) [7-367]
≥ 70%: pest or weed control at 1 ppm [1] | pest or weed control at 1 ppm [2] | pest or weed control at 100 ppm [4] | pest or weed control at 100 ppm [5]

CN(C(=O)c1cccnc1)c1cccc(C(=O)Nc2c(I)cc(C(F)(C(F)(F)F)C(F)(F)F)cc2C(F)(F)F)c1F [7-1764]
≥ 70%: pest or weed control at 1 ppm [1] | pest or weed control at 1 ppm [2] | pest or weed control at 1 ppm [6] | pest or weed control at 1 ppm [7] | pest or weed control at 1 ppm [8] | pest or weed control at 100 ppm [3] | pest or weed control at 100 ppm [4]

O=C(Nc1cccc(C(=O)Nc2c(Br)cc(C(F)(C(F)(F)F)C(F)(F)F)cc2Br)c1F)c1ccccc1F [6-1105]
≥ 70%: pest or weed control at 1 ppm [1] | pest or weed control at 1 ppm [2] | pest or weed control at 100 ppm [4] | pest or weed control at 100 ppm [5]

O=C(Nc1c(I)cc(C(F)(C(F)(F)F)C(F)(F)C(F)(F)F)cc1I)c1cccc(NC(=O)c2ccccc2F)c1 (stereo not shown) [6-72]
≥ 70%: pest or weed control at 1 ppm [1] | pest or weed control at 1 ppm [2] | pest or weed control at 1 ppm [6] | pest or weed control at 1 ppm [7] | pest or weed control at 1 ppm [8] | pest or weed control at 100 ppm [3] | pest or weed control at 100 ppm [4]

N#Cc1ccc(C(=O)Nc2cccc(C(=O)Nc3c(Br)cc(C(F)(C(F)(F)F)C(F)(F)F)cc3Br)c2F)cc1 [6-1125]
≥ 70%: pest or weed control at 1 ppm [1] | pest or weed control at 1 ppm [2] | pest or weed control at 100 ppm [4] | pest or weed control at 100 ppm [5]

CN(C(=O)c1cccc(F)c1)c1cccc(C(=O)Nc2c(Br)cc(C(F)(C(F)(F)F)C(F)(F)C(F)(F)F)cc2C(F)(F)F)c1 (stereo not shown) [7-348]
≥ 70%: pest or weed control at 1 ppm [1] | pest or weed control at 1 ppm [2] | pest or weed control at 1 ppm [6] | pest or weed control at 1 ppm [7] | pest or weed control at 1 ppm [8] | pest or weed control at 100 ppm [3] | pest or weed control at 100 ppm [4]
